From patent publication US4166852A, “Piperazino-pyrimidines and their use as spasmolytic agents” (priority 1974, dated 1979)
Converted amounts (≈) assume the structure as drawn. Structures can show the parent of a compound that is named as a salt. Where two headings read alike, the source gives them in different places.

Key:
[1] = system: head twitch; assay: anti-serotonine activity, head twitch; format: in vivo, CD 1 (Charles RIVER) mice; conditions: Mus musculus, po; mice, orally; read-out: "Head-twitch" AD 50
Source text: (§1) The anti-serotonine activities of the compounds according to the invention have been shown by oral administration to the CD (Charles RIVER) rats using the technique of the serotonine plantar oedema (W. Theobald and R. Domenjoz--Arzneimittel Forsch, 8, 18, 1958 and with the CD 1 (Charles RIVER) mice using the technique known as "head twitch" according to S. J. Corne, R. W. Pickering and B. T. Warner, Brit. J. Pharmacol., 20, 106, (1963). The anti-serotonine activity has also been determined on the one hand on the tricoloured guinea-pig, given intravenously, according to a method derived from H. Konzet and R. Rossler, Arch. exp. Pathol, Pharmakol., 195, 71, (1940) and on the other hand in vitro with respect to the serotonine spasm of the isolated uterus of the rat according to the technique of A. Fanchamps, W. Doepfener, H. Weidman and A. Cerletti, Schw. Med. Worsch, 90, 1940, (1960).

[2] = solubility; format: physicochemical
[3] = system: mice; assay: analgesic activity, painful abdominal torsions test with phenylbenzoquinone; format: in vivo, CD 1 (Charles RIVER) mice; conditions: for ED50: Mus musculus, po, mice, orally, read-out: Phenylbenzoquinone test on mice AD 50
Source text: The analgesic properties of the products according to the invention have been shown with CD 1 (Charles RIVER) mice in the painful abdominal torsions test with phenylbenzoquinone according to the technique of E. Siegmund, R. Cadmus and Go.Lu--Proc. Soc. Exp. Biol. Med., 95, 729, (1957).

[4] = system: mouse; assay: spontaneous motility test (hypomotility), mouse; format: in vivo, mice; conditions: po, 1 h, orally, 60 minutes before measuring, 50% reduction of mean motility, first 5 minutes, read-out: Hypomotility ED 50
Source text: (§2) The neuroloptic effects of the compounds according to the invention have been shown with respect to the CD rat (Charles RIVER) taken orally in the catalepsy test according to S. COURVOISIER, R. DUCROT, and L. JULOU, in Psychotropic Drugs, S. GARATTINI and V. GHETTI, Edit.--ELSEVIER Publ. Co., AMSTERDAM, LONDON, NEW YORK, PRINCETON, 1957 P. 373 and also in the traction test of CD1 (Charles RIVER) mice taken orally S. COURVOISIER, Quart. Rev. Psychiat. Neurol. 17, 25 (1956), on the one hand and also in the spontaneous motility test.
This latter technique comprises keeping an account of the displacements of the mice by means of a floor of metal strips which enables the spontaneous activity of the animals to be recorded during the first 5 minutes subsequent to their being introduced into the measuring chamber. The products are dispensed 60 minutes before measuring is effected and 10 mice are used per dose. The results are expressed in ED 50 which represents the dose of substance capable of reducing the mean motility of the treated animals by 50% relative to that of the sample group which has only received the dispensing carrier.

[5] = system: mouse; assay: traction test, mouse; format: in vivo, CD1 (Charles RIVER) mice; conditions: po, orally, read-out: Traction AD 50
Source text: as §2

[6] = acute toxicity, LD 50, CD 1 mice; format: in vivo; conditions: mouse, in vivo
Source text: (§3) The acute toxicities of the compounds according to the invention have been determined on CD 1 (Charles RIVER) mice by intravenous and oral methods. The LD 50 of each compound has been calculated by the cumulative method of J. J. Reed and H. Muench, (Amer. J. Hyg., 1938, 27, 493).

[7] = system: isolated duodenum of the rabbit (barium chloride); assay: spasmolytic effect on isolated duodenum, barium chloride spasm; format: cell-based; conditions: Oryctolagus cuniculus, read-out: Spasmolytic effects EC 50 with respect to barium chloride
Source text: (§4) Ges. Physiol., 102, 123, (1904) with respect to the spasms of the isolated duodenum of rabbits caused either by acetylchlorine for the spasmolytic nemotropes or by barium chloride for the spasmolytic musculotropes.

[8] = system: isolated duodenum of the rabbit (acetylcholine); assay: spasmolytic effect on isolated duodenum, acetylcholine spasm; format: cell-based; conditions: Oryctolagus cuniculus, read-out: Spasmolytic effects EC 50 with respect to acetylcholine
Source text: as §4

[9] = system: dogs; assay: anti-emetic activity, apomorphine vomiting test on dogs; format: in vivo; conditions: for ED50: Canis lupus familiaris, po, read-out: Anti-emetic activity on dogs ED 50
Source text: The anti-emetic properties of the compounds according to the invention have been shown by oral administration of apomorphine to dogs in the vomiting test according to G. Chen and C. J. Ensor, Pharmacol. exp. Therap., 98, 24 (1950).

[10] = system: isolated duodenum of the rabbit; assay: spasmolytic activity overall; format: cell-based; conditions: isolated duodenum of rabbits
Source text: as §4

[11] = system: serotonine plantar oedema; assay: anti-serotonine activity, serotonine plantar oedema; format: in vivo, CD (Charles RIVER) rats; conditions: po; rat, orally; read-out: Serotonine plantar oedema AD 50
Source text: as §1

[12] = system: serotonine bronchospasms; assay: anti-serotonine activity, serotonine bronchospasms; format: in vivo, tricoloured guinea-pig; conditions: Cavia porcellus, iv; guinea pig, intravenously; read-out: Serotonine bronchospasms ED 50
Source text: as §1

[13] = system: rat; assay: catalepsy test, rat; format: in vivo, CD rat (Charles RIVER); conditions: po, orally, read-out: Catalepsy AD 50
Source text: as §2

[14] = system: serotonine; assay: antiserotonine properties on the whole (all four tests); parameters: species or system rat, mice, guinea pig; conditions: comparison within the series
Source text: as §1

[15] = system: mice; assay: acute toxicity, LD 50, CD 1 mice; format: in vivo; conditions: intravenous
Source text: as §3

[16] = intravenous, read-out: Acute toxicity for mice LD 50, intravenous
[17] = oral, read-out: Acute toxicity for mice LD 50, orally

Row | SMILES | ED50 [1] [mg/kg] | solubility in dilute hydrochloric acid [2] | solubility in ethanol (alcohol) [2] | solubility in water [2] | ED50 [3] [mg/kg] | ED50 [4] [mg/kg] | ED50 [5] [mg/kg] | LD50 [6, 16] [mg/kg] | EC50 [7] [µg/mL] | EC50 [8] [µg/mL] | ED50 ([9]; dogs, orally, apomorphine) [mg/kg] | ED50 [11] [mg/kg] | ED50 [12] [mg/kg] | ED50 [13] [mg/kg] | LD50 [6, 17] [mg/kg] | Acute toxicity for mice LD 50, intravenous [15] | also measured
1 | CCCCCCNc1nc(Cl)c(SC)c(N2CCN(C)CC2)n1 [Example 25, 2-n.hexylamino-4-N-methylpiperazino-6-chloro-5-methylthiopyrimidine] | 55 | soluble | very soluble | insoluble | 85 | 70 | > 300 | 70 | 0.2 (≈ 0.559 µM) | 1 (≈ 2.79 µM) | 5 | ~300 | 0.18 | > 300 |  |  | solubility in solvents ([2]; solvents): very soluble; spasmolytic activity type / ranking [10]: most effective
2 | CCCCNc1nc(Cl)c(SC)c(N2CCN(C)CC2)n1 [Example 31, 2-n.butylamino-4-N-methylpiperazino-6-chloro-5-methylthiopyrimidine] | 13 | soluble | soluble | insoluble | 100 | 20 |  | 98 | 0.3 (≈ 0.909 µM) | 1.2 (≈ 3.64 µM) | ~3 | > 100 | 0.1 |  | ~225 |  | antiserotonine properties ranking [14]: the greatest antiserotonine properties on the whole
3 | CCCCN1CCN(c2nc(N3CCOCC3)nc(Cl)c2SC)CC1 [Example 29, 2-Morpholino-4-N-butylpiperazino-5-methylthio-6-chloropyrimidine] | 80 |  | soluble | insoluble | 55 | 50 |  |  |  |  | > 5 |  |  |  | ~600 | insoluble | solubility in dilute methanesulphonic acid [2]: soluble
4 | CCCNc1nc(Cl)c(SC)c(N2CCN(C)CC2)n1 [Example 30, 2-n.propylamino-4-N-methylpiperazino-6-chloro-5-methylthiopyrimidine] | 10 | soluble | soluble | insoluble | > 400 | 25 |  | 60 | 0.2 (≈ 0.633 µM) | 9 (≈ 28.5 µM) | 0.16 |  | 0.05 | > 300 | ~200 |  | antiserotonine properties ranking [14]: the greatest antiserotonine properties on the whole; anti-vomiting ranking ([9]; comparison within the series, dogs): the most strong anti-vomiting agents; spasmolytic activity type / ranking [10]: most effective
5 | CSc1c(Cl)nc(N(C)C(C)=O)nc1N1CCN(C)CC1 [Example 16, 2-(N-methyl-N-acetyl)amino-4-N-methylpiperazino-5-methylthio-6-chloro-pyrimidine hydrochloride] | > 100 |  |  |  |  |  |  |  |  |  |  | 100 |  |  | ~525 | insoluble | 
6 | CCOCCOc1nc(NC)nc(N2CCN(C)CC2)c1SC [Example 20, 2-Methylamino-4-N-methylpiperazino-5-methylthio-6-β-ethoxyethoxy-pyrimidine hydrochloride] |  |  |  |  |  |  |  |  |  |  |  |  |  |  | ~265 | insoluble | 
7 | CCNc1nc(Cl)c(SC)c(N2CCN(C)CC2)n1 [Example 1, 2-Ethylamino-4-N-methyl-piperazino-6-chloro-5-methylthio-pyrimidine hydrochloride] | 30 |  |  |  | 35 |  | > 35 | 41 | 1.6 | 5 |  | 160 | 6 | 85 | ~200 |  | ED50 [9]: 0.35 mg/kg
8 | CSc1c(Cl)nc(NC2CCCCC2)nc1N1CCN(C)CC1 [Example 23, 2-Cyclohexylamino-4-N-methylpiperazino-6-chloro-5-methylthiopyrimidine] | 67 | soluble | soluble | insoluble | 100 | 220 | > 300 | 89 | 0.25 (≈ 0.702 µM) | 70 (≈ 197 µM) |  |  | 0.3 | 300 |  |  | 
9 | CCCCN1CCN(c2nc(N(C)Cc3ccccc3)nc(Cl)c2SC)CC1 [Example 27, 2-(N-methyl N-benzylamino)-4-N-butylpiperazino-5-methylthio-6-chloropyrimidine hydrochloride] |  |  |  | insoluble | 400 | 160 |  |  |  |  | 1.5 | > 400 |  |  |  | insoluble | solubility in dimethylsulphoxide ([2]; dimethylsulphoxide): soluble
10 | COCCCNc1nc(Cl)c(SC)c(N2CCN(C)CC2)n1 [Example 5, 3'-Methoxy-2-propylamino-4-N-methylpiperazino-6-chloro-5-methylthio-pyrimidine] |  |  |  |  | 35 |  | 30 | 56 | 1.3 (≈ 3.76 µM) | > 5 |  | 90 |  | 175 | ~200 |  | analgesic activity ranking ([3]; comparison within the series): the most active; antiserotonine properties ranking [14]: the greatest antiserotonine properties on the whole; spasmolytic activity type / ranking [10]: most effective
11 | CC(=O)Nc1nc(Cl)c(C)c(N2CCN(C)CC2)n1 [Example 14, 2-Acetylamino-4-N-methylpiperazino-5-methyl-6-chloro-pyrimidine] |  |  |  |  | 35 |  |  |  |  |  | 3.7 |  |  |  | ~270 | insoluble | 
12 | CSc1c(Cl)nc(Nc2ccccc2)nc1N1CCN(C)CC1 [Example 4, 2-phenylamino-4-N-methylpiperazino-6-chloro-5-methylthio-pyrimidine hydrochloride] | 60 |  |  |  |  |  |  |  |  |  |  |  |  |  | ~600 | insoluble | 
13 | CSc1c(Cl)nc(NCc2ccccc2)nc1N1CCN(C)CC1 [Example 26, 2-Benzylamino-4-N-methylpiperazino-5-methylthio-6-chloropyrimidine] | 17 | scarcely soluble |  | soluble | 35 | 20 | 45 | 85 | 0.17 (≈ 0.467 µM) | 0.2 (≈ 0.55 µM) | ~2 |  | 0.05 | 33 | ~525 |  | solubility in dilute methanesulphonic acid [2]: soluble
